target: Tumor necrosis factor receptor superfamily member 10B (Homo sapiens, UniProt O14763)
Sequence (O14763 whole entry): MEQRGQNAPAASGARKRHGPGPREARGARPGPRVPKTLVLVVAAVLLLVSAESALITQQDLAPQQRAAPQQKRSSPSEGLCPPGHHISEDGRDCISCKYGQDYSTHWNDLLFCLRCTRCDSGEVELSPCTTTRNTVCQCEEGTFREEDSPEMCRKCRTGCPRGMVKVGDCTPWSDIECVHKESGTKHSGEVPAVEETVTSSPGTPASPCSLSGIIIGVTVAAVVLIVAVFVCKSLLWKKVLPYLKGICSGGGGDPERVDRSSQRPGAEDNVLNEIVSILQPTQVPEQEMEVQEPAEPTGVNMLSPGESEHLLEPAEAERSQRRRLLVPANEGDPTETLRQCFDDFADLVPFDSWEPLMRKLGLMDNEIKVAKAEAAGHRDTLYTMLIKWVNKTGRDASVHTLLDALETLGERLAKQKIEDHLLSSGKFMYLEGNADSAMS

Going from `CN(C)c1ccc(N=CCC(=O)c2ccco2)cc1` to `CCOC(=O)c1ccc(N=CCC(=O)c2ccco2)cc1` [ethyl 4-[[(E)-3-(furan-2-yl)-3-oxoprop-1-enyl]amino]benzoate], the EC50 rises from 7.62 µM to greater than 12.5 µM.

Compared with `O=c1c2ccccc2nc2c3ccccc3cnn12`, `COc1ccc(CN=Nc2nc3ccccc3c(=O)n2-c2ccccc2)cc1OC` [SMR000174011] is lower in EC50: greater than 12.5 µM for the first, 8.6 µM for the second. The second is the more potent here.

Going from `Cc1ccc(N=CC(C(=O)c2cccs2)C(=O)C(F)(F)F)cc1` (stereo unspecified) to `COc1cccc(N=CCC(=O)c2ccc(Cl)cc2)c1` [(E)-1-(4-chlorophenyl)-3-(3-methoxyanilino)-2-propen-1-one], the EC50 rises from 1.87 µM to 10.3 µM (5.5-fold). The first is the more potent here.

Going from `CCOC(=O)C(c1nc2ccccc2[nH]1)n1c(-c2cccnc2)nc2ccccc21` (stereo unspecified) [2-(1,3-dihydrobenzimidazol-2-ylidene)-2-[2-(3-pyridinyl)-1-benzimidazolyl]acetic acid ethyl ester] to `Cc1cc(N=NCc2ccccc2)nc(NCc2ccccc2)n1` [6-methyl-N2-(phenylmethyl)-N4-[(E)-(phenylmethylidene)amino]pyrimidine-2,4-diamine], the EC50 rises from 10.5 µM to greater than 12.5 µM. The first is the more potent here.

First: O=C(Cc1ccc2ccccc2n1)c1ccc(O)cc1O [(2Z)-1-(2,4-dihydroxyphenyl)-2-(1H-quinolin-2-ylidene)ethanone]
Second: O=c1[nH]c(N=NCc2ccc3c(c2)OCO3)nc2ccccc12 [MLS000700888]
The EC50 of the first is higher: greater than 12.5 µM for the first, 10.9 µM for the second.

With `COc1ccc(C(C)N=Nc2nncc3ccccc23)cc1` (stereo unspecified) [N-[(E)-1-(4-methoxyphenyl)ethylideneamino]-1-phthalazinamine] the EC50 was greater than 12.5 µM.

Source: BindingDB's records for doi:10.7270/Q2P55M4P (Burnham Center For Chemical Genomics, 2013)
